# Data as given in patent US7132012B2, “Phthalocyanine compound, ink, ink jet recording method and image forming method” (Fuji Photo Film Co., Ltd., priority 2004, dated 2006).
# Assay: Color toner image: light fastness property (xenon light)
# Type: physicochemical
# Details: xenon light 85,000 lux, 5 days
# Procedure: As for each of the phthalocyanine compounds of the invention (compounds 101, 102, 103 and 107), 3 parts by weight of the compound and 100 parts by weight of a resin for toner [styrene-acrylic acid ester copolymer; trade name HIMER TB-1000F (manufactured by Sanyo Chemical Industries, Ltd.)] were mixed and ground in a ball mill. Then, the mixture was heated to 150° C. to be molten and mixed. After cooling, the mixture was coarsely crushed using a hammer mill, and then, finely pulverized by a pulverizer of an air jet system. The resulting particles were further classified, and 1 to 20 micro was selected, resulting in a toner. To 10 parts of the toner, 900 parts of carrier iron powder (trade name EFV250/400; manufactured by Nippon Iron Powder) was uniformly mixed, resulting in a developer. Similarly, each sample of the comparative coloring agents shown in Table-7 were prepared in the same manner, except that the dye was used in an amount of 3 parts by weight, and the pigment was used in an amount of 6 parts by weight. By the use of these developers, copying was carried out by means of a dry ordinary paper electrophotographic copier [trade name NP-5000; manufactured by CANON, Corp.].
# Reflected images (images on paper) and transmitted images (OHP images) were formed on paper and OHP sheets, respectively, with a developer using a color toner containing the compounds of the invention in accordance with the foregoing image forming method, and the evaluation tests were conducted in the following manner. Incidentally, the amount of the toner deposited was evaluated in the range of 0.7±0.05 (mg/cm^2).
# The light fastness property was evaluated in the following manner. The image density Ci immediately after recording was measured, and thereafter, the image was irradiated with xenon light (85,000 lux) by means of a weather meter (Atlas C. 165), for 5 days. Then, the image density Cf was measured again, and the coloring matter residual ratio ([…]) was determined from the difference in image density between before and after xenon light irradiation. The image density was measured by means of a reflection densitometer (X-Rite 310TR). In Table-7, the case where the coloring matter residual ratio was 90% or more is indicated with ∘; less than 90 to 80%, Δ; and less than 80%, x.
compound,measurement,value
C.I. Solvent Blue 70,Light fastness property,∘ (the case where the coloring matter residual ratio was 90% or more is indicated with ∘)
C.I. Solvent Blue 38,Light fastness property,∘ (the case where the coloring matter residual ratio was 90% or more is indicated with ∘)
CNc1ccc(O)c2c1C(=O)c1c(O)ccc(NC)c1C2=O [Comparative dye 5],Light fastness property,"Δ (less than 90 to 80%, Δ)"
Cc1ccc(Nc2ccc(Nc3ccc(C)cc3)c3c2C(=O)c2c(Nc4ccc(C)cc4)ccc(Nc4ccc(C)cc4)c2C3=O)cc1 [Comparative dye 6],Light fastness property,"Δ (less than 90 to 80%, Δ)"
